Drawing on US20220087996A1, “Histone acetylase p300 inhibitor and use thereof” (HINOVA PHARMACEUTICALS INC., priority 2018, published 2022), this text covers IC50 for 2 molecules.

What is called IC50 is the point on the concentration scale where inhibition reaches its midpoint.

One assay has as its target T1, histone acetylase p300 (Homo sapiens, UniProt Q09472).
T1 construct: purchased BPS
Description: Inhibitory activity on histone acetylase p300 (radioisotope FlashPlate). Format: biochemical. As to conditions: enzyme 0.2 nM, peptide substrate 600 nM, [3H]-Ac-CoA 250 nM; read-out: IC50 against P300. The text has this: Using the radioisotope FlashPlate technology, the half inhibitory concentration (IC50) of the compound according to the present invention was detected against histone acetylase p300 (purchased from BPS). […] Under the catalysis of histone acetylase p300, [3H]—Ac group in the isotope-labeled [3H]-Ac-CoA was transferred to the biotinylated histone polypeptide substrate (purchased from GL Biochem Ltd.), and then the biotinylated histone peptide substrate bound to the streptavidin on the FlashPlate board, so that the isotope was close enough to the FlashPlate board. Thus, the radiation energy of isotope could convert the scintillation fluid coated on the FlashPlate board into photons, that was able to be detected. Detailed procedures were as follows:
• 1× reaction buffer: 50 mM Tris-HCl, pH 7.5; 0.01% Tween-20 • Reaction stop solution: 750 μM Ac-CoA solution
Each test compound was dissolved into 10 mM with 100% DMSO, and then each compound was diluted to the desired concentration in Echo 384-well plate. […] 200 nl of 100% DMSO was transferred into the well as the negative control.
p300 was added to 1× reaction buffer to form a 2× enzyme solution (the final concentration of enzyme being 0.2 nM).
The peptide substrate and [3H]-Ac-CoA were added to the 1-fold reaction buffer, to form a 2-fold substrate solution (the final concentration of the substrate being 600 nM and 250 nM, respectively).
10 μl of 2-fold enzyme solution was added to the wells of 384-well reaction plate. […] The plate was centrifuged at 1000 rpm for 1 min and incubated at room temperature for 15 min.
10 μl of 2-fold substrate solution was added to each well of 384-well reaction plate. The plate was centrifuged at 1000 rpm for 1 min, and then reacted at 25° C. for 60 min.
10 μl of reaction stop solution was added to each well of 384-well reaction plate to stop the reaction. 25 μL solution was collected from each well of the test plate and transferred to Flashplate, that was placed at room temperature for 1 h. Then, Flashplate plate was washed three times with 0.1% Tween-20 solution.
4) Reading Data with MicroBeta 2
The data were copied from Microbeta 2. […] The maximum value is the conversion rate of the control DMSO, and the minimum value is the conversion rate of the control without enzyme activity.
The data were imported into Graph Pad Prism5, and the formula “log(inhibitor) vs. response−Variable slope” was used to perform curve fitting, to obtain the half inhibitory concentration (IC50).

Assay [1] concerns CWR22RV1 cells. Description: Inhibition of proliferation of CWR22RV1 cells (CCK-8). It counts as cell-based, human. As to conditions: Homo sapiens, CWR22Rv1, 144 h, 6 days culture, read-out: IC50 against CWR22RV1 cells. The method in brief: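 CWR22RV1 cells (1500/well) were exposed to 9 three-fold compound concentrations (top final 10 μM, 0.1% DMSO) for 6 days. CCK-8 was added for 2.5 h, and absorbance was read at 450 nm. IC50 was fitted with a dose-response-inhibition equation.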

For assay [2], the system named is CWR22RV1 cells. As to the kind of experiment: Compound in combination with CDK4/6 inhibitor palbociclib on proliferation of CWR22RV1 cells. Format: cell-based, human. As to conditions: Homo sapiens, CWR22Rv1, single agent; read-out: IC50 against the activity of CWR22RV1 cells. On the procedure: The IC50 values (nM) of the compound according to the present invention, palbociclib, and the combination of the compound according to the present invention and palbociclib against CWR22RV1 cell proliferation were tested and calculated, and the detailed procedures were as follows:
(§1) 1) CWR22RV1 cells were subcultured in cell culture medium, and the cells in good growth condition were seeded in a 96-well plate, 60 μL for each well, and the cell number in each well was 2000. The plate was incubated overnight in a 37° C., 5% CO2 cell incubator. 2) The drug was prepared as 10 mM stock solution with dimethyl sulfoxide (DMSO). Prior to use, the stock solution was diluted 3 times with DMSO, and then further diluted as 3-fold gradient to obtain 9 concentration gradients. Then, each concentration of compound was diluted 200 times with the culture solution (ensuring that the DMSO concentration in the culture system was 0.1%), and two replicate wells were set for each concentration. 20 μL of diluted compound solution was added to the cell culture well (with final concentrations of 10 μM, 3.3 μM, 1.1 μM . . . ). Palbociclib was diluted with culture medium to 500 nM, 150 nM, 50 nM, 5 nM, and 20 μL diluted compound solution was added to the corresponding cell culture wells (with a final concentration of 100 nM, 30 nM, 10 nM, 1 nM). The plate was gently shaken to mix. In addition, 3 negative control wells containing only cells and 3 blank control wells containing only culture medium were included (6 wells were each added 20 μL DMSO diluted 200 times with culture medium).
(§2) (1) After culturing for 6 days, 10 μL CCK-8 was added to each well, and the plate was continually cultured in a 37° C., 5% CO2 cell incubator for 2.5 h. (2) The absorbance (OD value) was detected at 450 nm using a multifunctional microplate reader. (3) The data were analyzed by Dose-response-inhibition equation in the software GraphPad Prism6, and the IC50 value was obtained.

For a further assay, the system named is MCF-7 cells. As to the kind of experiment: Compound in combination with CDK4/6 inhibitor palbociclib against proliferation of MCF-7 cells. Format: cell-based. As to conditions: Homo sapiens, MCF7, single agent. On the procedure: as §1, §2
Using the same method as Experimental example 4, CWR22RV1 cells were replaced with MCF-7 cells, and the IC50 values (nM) of the compound according to the present invention, palbociclib, as well as the combination of the compound according to the present invention and palbociclib against the proliferation of MCF-7 cells w ere tested and calculated.

T1 sequence (Q09472 whole entry): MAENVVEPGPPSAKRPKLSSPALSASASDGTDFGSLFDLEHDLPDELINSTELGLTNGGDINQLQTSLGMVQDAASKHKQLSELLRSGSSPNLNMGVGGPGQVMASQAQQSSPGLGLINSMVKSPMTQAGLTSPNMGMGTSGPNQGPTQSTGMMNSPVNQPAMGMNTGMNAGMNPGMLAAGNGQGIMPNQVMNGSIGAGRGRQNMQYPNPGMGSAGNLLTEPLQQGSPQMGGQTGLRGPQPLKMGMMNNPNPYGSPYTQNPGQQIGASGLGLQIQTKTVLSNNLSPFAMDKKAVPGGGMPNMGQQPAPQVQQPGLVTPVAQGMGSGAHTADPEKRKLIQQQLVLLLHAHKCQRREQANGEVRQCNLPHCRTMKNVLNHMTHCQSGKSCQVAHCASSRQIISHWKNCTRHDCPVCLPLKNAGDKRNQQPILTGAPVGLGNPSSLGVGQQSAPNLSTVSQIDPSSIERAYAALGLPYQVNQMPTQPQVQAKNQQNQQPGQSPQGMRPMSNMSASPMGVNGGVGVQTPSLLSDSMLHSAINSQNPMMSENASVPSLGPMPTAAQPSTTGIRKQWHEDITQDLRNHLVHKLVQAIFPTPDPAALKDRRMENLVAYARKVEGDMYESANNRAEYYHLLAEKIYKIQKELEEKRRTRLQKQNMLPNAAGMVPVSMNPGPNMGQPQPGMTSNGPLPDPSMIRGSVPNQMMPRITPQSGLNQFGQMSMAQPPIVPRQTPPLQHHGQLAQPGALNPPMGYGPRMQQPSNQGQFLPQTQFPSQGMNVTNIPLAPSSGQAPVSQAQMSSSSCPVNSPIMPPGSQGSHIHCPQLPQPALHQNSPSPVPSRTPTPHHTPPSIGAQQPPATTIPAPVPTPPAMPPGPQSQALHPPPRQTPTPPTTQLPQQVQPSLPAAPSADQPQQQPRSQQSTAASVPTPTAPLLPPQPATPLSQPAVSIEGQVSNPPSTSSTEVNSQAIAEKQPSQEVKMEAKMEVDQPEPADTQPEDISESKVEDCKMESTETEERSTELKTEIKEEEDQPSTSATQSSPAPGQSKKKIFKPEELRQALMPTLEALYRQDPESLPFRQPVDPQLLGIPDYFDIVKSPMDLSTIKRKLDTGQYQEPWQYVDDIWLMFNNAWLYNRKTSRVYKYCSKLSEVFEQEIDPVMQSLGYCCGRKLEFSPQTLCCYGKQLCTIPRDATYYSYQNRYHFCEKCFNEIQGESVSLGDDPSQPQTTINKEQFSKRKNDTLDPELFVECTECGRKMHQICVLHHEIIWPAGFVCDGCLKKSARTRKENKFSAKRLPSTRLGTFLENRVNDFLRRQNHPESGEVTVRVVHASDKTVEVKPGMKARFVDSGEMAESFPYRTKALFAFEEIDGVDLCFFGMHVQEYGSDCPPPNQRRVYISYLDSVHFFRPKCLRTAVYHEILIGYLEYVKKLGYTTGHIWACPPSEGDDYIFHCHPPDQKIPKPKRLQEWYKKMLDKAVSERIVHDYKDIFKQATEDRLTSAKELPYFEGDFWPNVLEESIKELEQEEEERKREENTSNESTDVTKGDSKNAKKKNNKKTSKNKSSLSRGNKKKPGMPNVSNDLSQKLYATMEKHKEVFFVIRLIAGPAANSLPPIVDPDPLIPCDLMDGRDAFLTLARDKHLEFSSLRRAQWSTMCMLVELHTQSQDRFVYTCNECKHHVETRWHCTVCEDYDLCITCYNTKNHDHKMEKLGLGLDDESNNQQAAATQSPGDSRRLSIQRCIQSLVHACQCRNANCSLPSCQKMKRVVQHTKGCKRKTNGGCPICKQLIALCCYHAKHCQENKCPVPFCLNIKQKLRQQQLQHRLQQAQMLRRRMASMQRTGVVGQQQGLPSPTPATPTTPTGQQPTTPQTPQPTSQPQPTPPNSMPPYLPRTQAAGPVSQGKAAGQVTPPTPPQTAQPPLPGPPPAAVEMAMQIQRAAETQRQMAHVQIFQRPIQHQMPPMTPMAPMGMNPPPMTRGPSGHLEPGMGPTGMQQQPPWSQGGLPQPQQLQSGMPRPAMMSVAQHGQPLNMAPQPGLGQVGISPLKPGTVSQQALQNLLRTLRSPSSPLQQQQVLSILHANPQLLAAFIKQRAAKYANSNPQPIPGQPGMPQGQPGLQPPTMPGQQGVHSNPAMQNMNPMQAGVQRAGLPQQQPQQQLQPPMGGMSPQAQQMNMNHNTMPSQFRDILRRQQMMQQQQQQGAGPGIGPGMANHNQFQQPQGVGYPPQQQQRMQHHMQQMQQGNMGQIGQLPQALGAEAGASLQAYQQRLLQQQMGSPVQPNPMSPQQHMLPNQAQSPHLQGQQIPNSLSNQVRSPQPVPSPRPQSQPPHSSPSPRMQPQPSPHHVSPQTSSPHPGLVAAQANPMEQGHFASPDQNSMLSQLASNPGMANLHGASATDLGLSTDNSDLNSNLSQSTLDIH

As for `C[C@H]1CC[C@@H](c2ccc(F)cc2)N1C(=O)CN1C(=O)O[C@@]2(CCc3cc(NC(=O)NC4CC4)ccc32)C1=O` [Example 371, 1-((R)-3′-(2-((2S,5S)-2-(4-fluorophenyl)-5-methylpyrrolidin-1-yl)-2-oxoethyl)-2′,4′dioxo-2,3-dihydrospiro[indene-1,5-oxazolidine]-5-yl)-3-cyclopropylurea], the values for the IC50 at histone acetylase p300 and in the assay on CWR22RV1 cells [1] were 3.1 nM and 500 to 2000 nM, respectively.

On to `CC(=O)c1c(C)c2cnc(Nc3ccc(N4CCNCC4)cn3)nc2n(C2CCCC2)c1=O` [palbociclib, reference compound], for which the IC50 with CWR22RV1 cells [2] turned out to be 66 nM; with MCF-7 cells, 34 nM.
